Values joined by “and” are separate entries in the source; they are usually repeats but may differ in a detail not shown here. Equal values may be shown once. Read-outs that look alike come from different tables or passages of the source. Marks after values point to notes of the source that are not given here.
Assays:
[1] = molecular target: T1, human Serotonin 5-HT2A receptor (Homo sapiens, UniProt P28223); experiment: IPOne HTRF assay, agonist mode, 5-HT2A; type: cell-based; conditions: for Top % Activation at maximal concentration, 5-HT2A (agonist mode): % of reference agonist at EC100, average where marked d
T1 construct: expressed in transfected cells; host or cells: CHO-K1
Experimental: (§1) SPA ^35S-GTPgS experiments are conducted with membrane preparations. IP-One and cAMP HTRF assays are conducted with recombinant cell lines.
(§2) Agonist activity of test compounds is expressed as a percentage of the activity of the reference agonist at its EC100 concentration. Antagonist activity of the test compound is expressed as a percentage of the inhibition of reference agonist activity at its EC80 concentration.

[2] = molecular target: T2, human Serotonin 5-HT7A receptor (Homo sapiens, UniProt P34969); experiment: Radioligand binding competition, filtration binding assay, 5-HT7A; conditions: for Ki: CHO-K1 membranes
T2 construct: expressed in transfected cells; host or cells: CHO-K1
Experimental: Radioligand binding experiments are conducted with membrane preparations.

[3] = molecular target: T1, human Serotonin 5-HT2A receptor; experiment: IPOne HTRF assay, antagonist mode, 5-HT2A; type: cell-based; conditions: IP-one
Experimental: IP-One and cAMP HTRF assays are conducted with recombinant cell lines.
as §2

[4] = molecular target: T3, human Serotonin 5-HT1A receptor (Homo sapiens, UniProt P08908); experiment: cAMP HTRF assay, agonist mode, 5-HT1A; type: cell-based; conditions: % of reference agonist at EC100, average where marked d
T3 sequence (P08908 1-422): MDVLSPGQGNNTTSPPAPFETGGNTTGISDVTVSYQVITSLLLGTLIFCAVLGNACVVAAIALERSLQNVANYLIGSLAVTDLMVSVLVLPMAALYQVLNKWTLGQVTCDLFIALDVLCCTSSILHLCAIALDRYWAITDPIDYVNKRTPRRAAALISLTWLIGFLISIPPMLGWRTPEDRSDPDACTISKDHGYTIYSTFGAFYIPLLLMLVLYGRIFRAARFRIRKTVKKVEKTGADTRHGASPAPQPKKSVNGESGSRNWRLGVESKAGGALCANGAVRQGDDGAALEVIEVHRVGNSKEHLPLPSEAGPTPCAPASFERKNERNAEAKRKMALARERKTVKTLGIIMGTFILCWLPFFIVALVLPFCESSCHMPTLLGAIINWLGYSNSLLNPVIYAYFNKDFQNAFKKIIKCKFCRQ
Experimental: as §1, §2

[5] = molecular target: human Dopamine D3 receptor (Homo sapiens, UniProt P35462); conditions: GTPγS; average where marked d
Experimental: as §1, §2

[6] = test system: Adult male Sprague Dawley rats; experiment: DOI-induced headshake response; type: in vivo, rat
Experimental: Example 10—DOI-Induced Headshake Response
Adult male Sprague Dawley rats are used. […] DOI (3 mg/kg) is dissolved in saline and administered IP at a dose volume of 1 ml/kg (10 minutes prior to test). Ketanserin (1 mg/kg) is dissolved in saline and injected IP 30 minutes prior to DOI at a dose volume of […].
Rats are then injected with DOI and headshakes are recorded 10 minutes after DOI injection for 10 minutes using video cameras. The headshake response is a rapid, rhythmic shaking of the head in a radial motion. Data is analyzed by ANOVA followed by post hoc analysis where appropriate.

[7] = test system: Adult male Sprague Dawley rats; experiment: Headshake response; type: in vivo, rat
Experimental: Example 9—Headshake Response
Adult male Sprague Dawley rats are used. […] DOI (3 mg/kg) is dissolved in saline and administered IP at a dose volume of 1 ml/kg (10 minutes prior to test).
The headshake response is a rapid, rhythmic shaking of the head in a radial motion. Data are analyzed by ANOVA followed by post hoc analysis where appropriate.

[8] = molecular target: T4, human Dopamine D4.4 receptor (Homo sapiens, UniProt P21917); conditions: cAMP; average where marked d
T4 sequence (P21917 1-419): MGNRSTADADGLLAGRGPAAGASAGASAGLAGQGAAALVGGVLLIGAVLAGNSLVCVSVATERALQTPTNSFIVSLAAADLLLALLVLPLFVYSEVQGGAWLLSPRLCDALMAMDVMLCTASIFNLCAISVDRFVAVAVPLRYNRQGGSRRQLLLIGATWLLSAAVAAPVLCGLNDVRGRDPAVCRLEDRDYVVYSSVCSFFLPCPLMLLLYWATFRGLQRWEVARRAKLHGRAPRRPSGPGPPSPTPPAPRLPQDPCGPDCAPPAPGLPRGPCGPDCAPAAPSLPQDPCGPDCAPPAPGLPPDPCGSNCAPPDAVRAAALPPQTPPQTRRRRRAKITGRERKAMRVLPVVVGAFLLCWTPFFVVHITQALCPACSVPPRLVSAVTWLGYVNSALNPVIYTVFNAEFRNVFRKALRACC
Experimental: as §1, §2

Adult male Wistar rats = experiment: Conditioned Avoidance Response test; type: in vivo, rat
From the text: Adult male Wistar rats are used.
The Conditioned Avoidance Response (CAR) Test is an animal model screening for antipsychotic drugs.

[9] = molecular target: human Dopamine D2S receptor (Homo sapiens, UniProt P14416)
Experimental: as §1, §2

[10] = molecular target: T2, human Serotonin 5-HT7A receptor; experiment: cAMP HTRF assay, antagonist mode, 5-HT7A; type: cell-based
Male Sprague Dawley rats = experiment: Touchscreen-based rat Probabilistic Reward Task; type: in vivo; conditions: 1 mg/kg orally, 4-5 hr prior to session
From the text: Example 7—Touchscreen-Based Rat Probabilistic Reward Task
The Probabilistic Reward Task (PRT) uses visual discrimination methodology to quantify reward responsiveness to both identify deficits and characterize drug-induced improvements. Groups of rats are trained on the touchscreen-based PRT and exposed to asymmetrical probabilistic contingencies to generate response biases to the richly rewarded stimulus (Pizzagalli, D. et al., Biological Psychiatry, 2005, 57, 319-327; Kangas, B. et al., Translational Psychiatry, 2020, 10(1):285; Wooldridge, L. et al., International Journal of Neuropsychopharmacology, 2021, 24, 409-418).
Male Sprague Dawley rats are used in the present study.
Briefly, a custom-built Plexiglas chamber (25×30×35 cm) is situated in a sound- and light-attenuating enclosure (40×60×45 cm). A 17″ touch-sensitive screen (1739L, ELO TouchSystems, Menlo Park, CA) comprises the inside right-hand wall of the enclosure. An infusion pump (PHM-100-5, Med Associates, St. Albans, VT) outside the enclosure is used to deliver sweetened condensed milk solution into the shallow reservoir of a custom-designed aluminum receptacle. […]
Following line-length discrimination training, probabilistic reinforcement schedules are introduced. […] These probabilistic contingencies are assessed across 5 consecutive sessions prior to initiation of drug testing.

[11] = In vitro metabolism, disappearance in pooled cryopreserved human hepatocytes; type: in vitro ADME; conditions: 5 μM; for Disappearance without cells (buffer), 0 min, % / Disappearance without cells (buffer), 60 min, % / Disappearance without cells (buffer), 120 min, %: no cell control / buffer; for Disappearance in human hepatocytes, 0 min, % / Disappearance in human hepatocytes, 60 min, % / Disappearance in human hepatocytes, 120 min, %: with cells
Experimental: Study compounds are investigated in pooled cryopreserved human (mixed gender) hepatocytes. The incubations are performed using 5 μM initial concentration and sampling at 0, 60, and 120 minute time points. The samples are analyzed using UPLC-QE-orbitrap-MS. Incubation volume: 300 μl in 48-well plate. Number of cells: 1 million viable cells/ml. Test compound: 5 μM (stock solution in DMSO). Incubation medium: pH 7.4, Bioreclamation IVT in vitro KHB medium. Shaking: 600 rpm. Time points: 0, 60, and 120 minutes with and without cells. Temperature: 37° C. Sampling volume: 60 μl. DMSO content in incubation: 0.5%. […] Control: verapamil disappearance rate.
Sample preparation for hepatocyte samples: Samples are centrifuged for 20 min at 2272×g at room temperature and pipetted to a UPLC-plate for analysis.

[12] = molecular target: T1, human Serotonin 5-HT2A receptor; experiment: Radioligand binding competition, filtration binding assay, 5-HT2A (labeled ketanserin)
[13] = [3H]-LSD, average where marked c, read-out: Binding 5-HT7A IC50
[14] = 2.5 and 5 mg/kg orally, 4 hours prior to test
[15] = numbers in parentheses that were averaged, read-out: Binding 5-HT7A IC50, single determinations
[16] = 0.5 mg/kg i.p., 30 minutes prior to test

Sequence of human Dopamine D3 receptor (P35462 whole entry): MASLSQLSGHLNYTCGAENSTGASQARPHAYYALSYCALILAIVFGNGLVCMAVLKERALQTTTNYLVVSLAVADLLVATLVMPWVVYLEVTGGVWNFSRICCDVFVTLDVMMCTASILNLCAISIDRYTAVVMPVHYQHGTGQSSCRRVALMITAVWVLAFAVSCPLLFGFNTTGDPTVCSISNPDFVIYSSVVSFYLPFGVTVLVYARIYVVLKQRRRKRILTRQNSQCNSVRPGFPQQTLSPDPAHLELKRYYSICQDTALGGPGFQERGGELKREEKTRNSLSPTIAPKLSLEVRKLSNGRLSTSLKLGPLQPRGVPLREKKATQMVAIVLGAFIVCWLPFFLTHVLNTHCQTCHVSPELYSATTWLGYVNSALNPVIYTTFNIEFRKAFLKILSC
T2 sequence (P34969 1-445 isoform P34969-2): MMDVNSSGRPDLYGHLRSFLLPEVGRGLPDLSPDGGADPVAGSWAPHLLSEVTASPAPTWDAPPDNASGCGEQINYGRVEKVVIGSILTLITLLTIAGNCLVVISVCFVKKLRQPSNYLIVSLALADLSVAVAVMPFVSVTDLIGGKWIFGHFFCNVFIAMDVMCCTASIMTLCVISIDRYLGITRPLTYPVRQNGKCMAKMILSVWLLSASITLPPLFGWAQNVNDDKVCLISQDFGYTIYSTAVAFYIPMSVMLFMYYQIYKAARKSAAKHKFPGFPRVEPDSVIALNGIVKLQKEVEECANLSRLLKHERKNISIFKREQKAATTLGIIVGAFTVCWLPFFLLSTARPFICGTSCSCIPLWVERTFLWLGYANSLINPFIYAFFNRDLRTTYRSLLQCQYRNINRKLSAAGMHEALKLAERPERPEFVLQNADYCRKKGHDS
T1 sequence (P28223 whole entry): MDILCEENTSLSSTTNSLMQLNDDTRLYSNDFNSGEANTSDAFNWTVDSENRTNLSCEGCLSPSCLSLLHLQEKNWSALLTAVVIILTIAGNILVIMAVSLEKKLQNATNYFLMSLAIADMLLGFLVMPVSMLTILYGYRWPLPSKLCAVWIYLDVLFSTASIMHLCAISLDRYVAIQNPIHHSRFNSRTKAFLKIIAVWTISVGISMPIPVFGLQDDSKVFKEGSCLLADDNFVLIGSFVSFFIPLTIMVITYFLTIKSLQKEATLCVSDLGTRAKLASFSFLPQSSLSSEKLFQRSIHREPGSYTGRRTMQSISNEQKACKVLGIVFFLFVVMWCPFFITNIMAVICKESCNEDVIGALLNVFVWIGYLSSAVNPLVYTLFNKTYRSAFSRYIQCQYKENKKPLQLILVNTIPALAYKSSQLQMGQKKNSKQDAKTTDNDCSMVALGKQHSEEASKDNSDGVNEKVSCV
Sequence of human Dopamine D2S receptor (P14416 1-414 isoform P14416-2): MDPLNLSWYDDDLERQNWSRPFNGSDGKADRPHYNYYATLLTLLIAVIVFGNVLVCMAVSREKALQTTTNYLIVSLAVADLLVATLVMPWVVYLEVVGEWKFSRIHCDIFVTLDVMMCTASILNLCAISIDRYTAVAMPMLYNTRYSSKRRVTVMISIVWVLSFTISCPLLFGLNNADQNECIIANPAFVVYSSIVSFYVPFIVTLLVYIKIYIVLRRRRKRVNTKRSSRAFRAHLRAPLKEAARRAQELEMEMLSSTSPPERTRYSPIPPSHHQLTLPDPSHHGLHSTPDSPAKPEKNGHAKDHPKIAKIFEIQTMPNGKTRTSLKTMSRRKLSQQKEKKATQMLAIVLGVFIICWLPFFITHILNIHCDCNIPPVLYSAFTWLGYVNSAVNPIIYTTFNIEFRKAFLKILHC

CNc1cc(OC)c(C(=O)N[C@H]2CCN(Cc3ccccc3)[C@H]2C)cc1Cl (racemic) [Nemonapride, (±)-cis-N-(1-Benzyl-2-methylpyrrolidin-3-yl)-5-chloro-2-methoxy-4-methylaminobenzamide]
Top % Activation at maximal concentration, 5-HT2A (agonist mode) ([1]; IP-one): 48% | Ki ([2]; [3H]-LSD): 0.0532 µM | IC50 [2, 13]: 0.0757 µM | Top % Inhibition at maximal concentration, 5-HT2A (antagonist mode) [3]: 33% | Top % Activation at maximal concentration, 5-HT1A (agonist mode) [4]: 52% | Top % Inhibition at maximal concentration, D3 (antagonist mode) [5]: 126%

COc1cc(CC(C)N)c(OC)cc1I (stereo not drawn) [DOI, reference compound]
Number of headshakes compared to vehicle ([6]; DOI 3 mg/kg IP, 10 minutes prior to test): significantly increases the number of headshakes | Number of headshakes compared to vehicle ([7]; 3 mg/kg i.p., 10 minutes prior to test): significantly increases headshake responses

[2H]C([2H])([2H])Nc1cc(OC)c(C(=O)N[C@@H]2CCN(C([2H])([2H])c3ccccc3)[C@@H]2C)cc1Cl [Example 1, 5-Chloro-N-((2R,3R)-1-(dideutero(phenyl)methyl)-2-methylpyrrolidin-3-yl)-2-methoxy-4-(trideuteromethylamino)benzamide]
Top % Inhibition at maximal concentration, D4 (antagonist mode) [8]: 100^d % | DOI-induced headshake responses ([6]; 1, 5 and 10 mg/kg PO, 4 hours prior, DOI 3 mg/kg IP): significantly attenuate DOI-induced headshake responses | Top % Activation at maximal concentration, 5-HT2A (agonist mode) ([1]; IP-one): 69^d % | Top % Activation, 5-HT2A (agonist mode), single determinations ([1]; IP-one, numbers in parentheses that were averaged, listed as Ex. 1 (A2)): 53% and 82% and 68% and 72% | 5-HT2A agonism (in words) ([1]; compared with non-deuterated analog / summary of Tables 4 and 5): 5-HT2A partial agonist and higher 5-HT2A agonism | Escape failures compared to vehicle (Adult male Wistar rats; 0.5, 2.5 and 5 mg/kg orally, 4 hours prior to test): None of the doses of the deuterated compound of Example 1 (A2) have a significant treatment effect | Number of avoidance responses compared to vehicle (Adult male Wistar rats; [14]): significantly decrease | Percent avoidance compared to vehicle (Adult male Wistar rats; [14]): significantly decrease | Ki ([2]; [3H]-LSD): 0.0826 µM | IC50 [2, 13]: 0.131 µM | IC50 [2, 15]: 0.143 µM and 0.118 µM | Top % Inhibition, D2S (antagonist mode), single determinations [9]: 93) % | Top % Inhibition, D2S (antagonist mode), single determinations ([9]; cAMP, numbers in parentheses that were averaged): (104, % | Top % Activation at maximal concentration, 5-HT1A (agonist mode) [4]: 64^d % | Top % Inhibition at maximal concentration, D3 (antagonist mode) [5]: 122^d % | IC50 [10]: > 3 µM | Reward response bias (log b) (Male Sprague Dawley rats): enhances reward response bias (log b) significantly | Number of headshakes compared to vehicle ([7]; 1, 5 and 10 mg/kg PO, 4 hours prior to test): no significant increase | Disappearance without cells (buffer), 0 min, % [11]: 100% | Disappearance without cells (buffer), 60 min, % [11]: 91% | Disappearance without cells (buffer), 120 min, % [11]: 92% | Disappearance in human hepatocytes, 0 min, % [11]: 100% | Disappearance in human hepatocytes, 60 min, % [11]: 8% | Disappearance in human hepatocytes, 120 min, % [11]: 1%

O=C(c1ccc(F)cc1)C1CCN(CCn2c(=O)[nH]c3ccccc3c2=O)CC1 [Ketanserin]
DOI-induced headshake responses ([6]; 1 mg/kg IP, 30 minutes prior to DOI 3 mg/kg IP): significantly attenuate DOI-induced headshake responses

CCN1CCC[C@@H]1CNC(=O)c1c(OC)ccc(Br)c1OC [R-remoxipride]
Binding to the 5-HT2A receptor in vitro (in words) [12]: do not even bind

CCN1CCC[C@H]1CNC(=O)c1c(OC)ccc(Br)c1OC [S-remoxipride]
Binding to the 5-HT2A receptor in vitro (in words) [12]: do not even bind

CNc1cc(OC)c(C(=O)N[C@@H]2CCN(Cc3ccccc3)[C@@H]2C)cc1Cl [cis (R,R) nemonapride, N-[(2R,3R)-1-benzyl-2-methylpyrrolidin-3-yl]-5-chloro-2-methoxy-4-(methylamino)benzamide, reference compound]
Top % Inhibition at maximal concentration, D4 (antagonist mode) [8]: 111^d % | Top % Activation at maximal concentration, 5-HT2A (agonist mode) ([1]; IP-one): 44^d % | Ki ([2]; [3H]-LSD): 0.102 µM | IC50 [2, 13]: 0.129 µM | IC50 [2, 15]: 0.112 µM and 0.145 µM | Top % Activation at maximal concentration, 5-HT1A (agonist mode) [4]: 78^d % | Top % Inhibition at maximal concentration, D3 (antagonist mode) [5]: 99^d % | IC50 [10]: 2.47 µM | Disappearance without cells (buffer), 0 min, % [11]: 100% | Disappearance without cells (buffer), 60 min, % [11]: 96% | Disappearance without cells (buffer), 120 min, % [11]: 99% | Disappearance in human hepatocytes, 0 min, % [11]: 100% | Disappearance in human hepatocytes, 60 min, % [11]: 10% | Disappearance in human hepatocytes, 120 min, % [11]: 2%

Cc1nc2n(c(=O)c1CCN1CCC(c3noc4cc(F)ccc34)CC1)CCCC2 [risperidone, reference compound]
Number of avoidance responses compared to vehicle (Adult male Wistar rats; [16]): significantly decrease | Percent avoidance compared to vehicle (Adult male Wistar rats; [16]): significantly decrease

From patent publication US20250091990A1, “DEUTERATED ORGANIC COMPOUNDS AND USES THEREOF” (ENGRAIL THERAPEUTICS, INC., priority 2022, published 2025)
